System: Adult, male Wistar rats
Test: Sleep-wakefulness monitoring (EEG/EMG, SCORE-2000) in rats: NREM sleep cumulation and longest uninterrupted sleep bout
Assay type: in vivo, rat
Conditions: for LUSB (longest uninterrupted sleep bout each hour, mean adjusted for baseline and vehicle control) / NREM (mean maximum cumulation of NREM sleep over baseline, adjusted for baseline and vehicle control): intraperitoneal bolus at CT-18, male Wistar rats; for Increase of NREM sleep cumulation versus vehicle control (FIGS. 1-3), in words / Increase of LUSB versus vehicle control (FIGS. 4-6), in words: rats
Description: Sleep-wakefulness, locomotor activity and body temperature were monitored in vivo with the disclosed racemic sleep-inducing agent 1 and its R and S isomers 1-R and 1-S. Adult, male Wistar rats (250 g at time of surgery, Charles River Laboratories, Wilmington Mass.) were anesthetized (Nembutal, 62 mg/kg) and surgically prepared with a cranial implant to permit chronic electro-encephalogram (EEG) and electromyogram (EMG) recording. Body temperature and locomotor activity were monitored via a miniature transmitter (Mini-Mitter, Bend, Oreg.) surgically placed in the abdomen. The cranial implant consisted of stainless steel screws (two frontal [+3.2 AP from bregma, ±2.0 ML] and two occipital [−6.9 AP, ±5.5 ML]) for EEG recording. Two Teflon®-coated stainless steel wires were positioned under the nuchal trapezoid muscles for EMG recording. All leads were soldered to a miniature connector prior to surgery, and gas sterilized in ethylene oxide. The implant assembly was affixed to the skull with dental acrylic. A minimum of three weeks was allowed for surgical recovery.
Each rat was permanently housed in its own individual recording cage located within separate, ventilated compartments of custom- designed stainless steel cabinets. Each cage was enhanced with a filter-top riser and low-torque swivel-commutator. Food and water were available ad libitum. A 24-hr light-dark cycle (12 hours light, 12 hours dark) was maintained throughout the study using 4-watt fluorescent bulbs 5 cm from the cage. Animals were undisturbed for at least 48 hours before and after treatments.
Sleep and wakefulness were determined using “SCORE-2000™” (Hypnion, Worcester, Mass.)—an internet-based sleep-wake and physiological monitoring system. The system monitored amplified EEG (bandpass 1-30 Hz; digitization rate 400 Hz), integrated EMG (bandpass 10-100 Hz), body temperature and non-specific locomotor activity (LMA) via telemetry, and drinking activity, continuously and simultaneously. Arousal states were classified on-line as non-REM (NREM) sleep, REM sleep, wake, or theta-dominated wake every 10 seconds using EEG feature extraction and pattern-matching algorithms. […] The classification algorithm used individually-taught EEG-arousal-state templates, plus EMG criteria to differentiate REM sleep from theta-dominated wakefulness, plus behavior-dependent contextual rules (e.g., if the animal was drinking, it is awake). Drinking and locomotor activity (LMA) were recorded as discrete events every 10 seconds, while body temperature was recorded each minute. Locomotor activity was detected by a telemetry receiver (Mini-Mitter) beneath the cage. Telemetry measures (LMA and body temperature) were not part of the scoring algorithm; thus, sleep-scoring and telemetry data were independent measures.
Compounds were administered at CT-18, the peak of the activity-dominated period, in order to ensure prior wakefulness was sufficient to interact positively with hypnotic-drug effects, and sufficient time was allowed to view the time course of the treatment effect before lights-on (6 hours post-treatment). Compounds were suspended in sterile 0.25% or 0.5% methylcellulose (2 ml/kg). Treatments were administered as an intraperitoneal bolus.
A parallel group study design was employed. Vehicle controls were drawn from a large pool (N>200): a subset of the pooled vehicle controls was selected, based on computerized matching with the 24-hour pre-treatment baseline of the active treatment group.
In Table 1, N is the number of trials, and NREM and LUSB values are means adjusted for both baseline and vehicle control values. NREM represents the mean maximum cumulation of NREM sleep in minutes over baseline as a function of time in hours after treatment with the compound or the vehicle control; LUSB is the longest uninterrupted sleep bout each hour in minutes as a function of circadian time.

SMILES | LUSB (longest uninterrupted sleep bout each hour, mean adjusted for baseline and vehicle control) (3 mg/kg) | NREM (mean maximum cumulation of NREM sleep over baseline, adjusted for baseline and vehicle control) (3 mg/kg) | LUSB (longest uninterrupted sleep bout each hour, mean adjusted for baseline and vehicle control) (10 mg/kg) | NREM (mean maximum cumulation of NREM sleep over baseline, adjusted for baseline and vehicle control) (10 mg/kg) | Increase of NREM sleep cumulation versus vehicle control (FIGS. 1-3), in words (10 mg/kg) | LUSB (longest uninterrupted sleep bout each hour, mean adjusted for baseline and vehicle control) (30 mg/kg) | NREM (mean maximum cumulation of NREM sleep over baseline, adjusted for baseline and vehicle control) (30 mg/kg) | Increase of LUSB versus vehicle control (FIGS. 4-6), in words (30 mg/kg) | Increase of NREM sleep cumulation versus vehicle control (FIGS. 1-3), in words (30 mg/kg) | LUSB (longest uninterrupted sleep bout each hour, mean adjusted for baseline and vehicle control) (45 mg/kg) | NREM (mean maximum cumulation of NREM sleep over baseline, adjusted for baseline and vehicle control) (45 mg/kg)
O=C(O)C1CCCN(CCC=C2c3ccccc3CCc3ccccc32)C1 (racemic) [Compound 1] | 4.7 min | 15 min | 2.8 min | 24.8 min | particularly effective | 4.9 min | 35.4 min | effective at increasing LUSB | effective at increasing NREM cumulation | – | –
O=C(O)[C@H]1CCCN(CCC=C2c3ccccc3CCc3ccccc32)C1 [Compound 1-S] | – | – | 5.5 min | 31.9 min | particularly effective | 9.7 min | 31.8 min | effective at increasing LUSB | effective at increasing NREM cumulation | – | –
O=C(O)[C@@H]1CCCN(CCC=C2c3ccccc3CCc3ccccc32)C1 [Compound 1-R] | – | – | 2.5 min | 3.4 min | – | 5.8 min | 20.7 min | effective at increasing LUSB | effective at increasing NREM cumulation | 10.3 min | 31.8 min

From patent US20070066570A1, “Methods for treating sleep disorders” (priority 2003, published 2007)
